Columns and labels:
[1] = Average particle size (ζ-Average) and PDI by dynamic light scattering (Zetasizer Nano ZSP); type: physicochemical
Protocol: The average particle size (ζ-Average) and PDI in PBS(−) of lipid nanoparticles were measured using “Zetasizer Nano ZSP”, an analyzer utilizing dynamic light scattering (manufactured by Malvern).
Measurement of average particle size and PDI of the lipid nanoparticles were carried out with the same method as the measurement of average particle size of mRNA-LNP.
The average particle size (ζ-Average) and PDI in PBS (−) of lipid nanoparticles were measured using “Zetasizer Nano ZSP”, an analyzer utilizing dynamic light scattering (manufactured by Malvern).

spleen = assay: In vivo Fluc activity of FlucmRNA-loaded LNP by in vivo imaging, spleen; settings: Balb/c mice, 6 hours; for Fluc Activity in spleen: FlucmRNA-loaded LNP i.v. 0.1 mg mRNA/kg; for Fluc activity in the spleen, compared with CL15F6: 0.1 mg mRNA/kg, versus LNP comprising CL15F6 (Table 7)
Protocol: (§1) Then, each prepared FlucmRNA-loaded lipid nanoparticles were administered to Balb/c mice (Charles River Laboratories Japan, Inc., 7 weeks old, female) and in vivo gene expression activity was examined. Specifically, each FlucmRNA-loaded lipid nanoparticles were intravenously administered to Balb/c mice at 0.1 mg mRNA/kg, and Fluc activities in the liver and spleen at 6 hours later were measured. Fluc activity was measured by in vivo imaging system (Perkin Elmer, IVIS200) after administration of VivoGlo Luciferin, In Vivo Grade (Promega, P1041) dissolved with PBS to 15 mg/mL, via tail vein at a dose of 1.5 mg per mouse. The unit of Fluc activity is the emission intensity per unit area (Avg Radiance [p/s/cm2/sr]) at the maximum emission wavelength of about 560 nm. The results of measurement of the Fluc activity (Avg Radiance [p/s/cm2/sr]) in the liver and spleen of mice administered each FlucmRNA-loaded lipid nanoparticles are shown in Tables 5-7.

F7 = assay: In vivo F7 knockdown, plasma F7 enzyme activity (BIOPHEN FVII), Balb/c mice; settings: for F7 enzyme activity (%) / F7 enzyme activity (Ratio using MC3 as 1): i.v. 0.025 mg siRNA/kg, plasma at 24 hours; for F7 enzyme activity (%): untreated mice as 100%; for F7 enzyme activity (Ratio using MC3 as 1): relative plasma F7 activity of MC3 LNP as 1; for knockdown activity, compared with MC3: F7siRNA-loaded LNP, versus LNP comprising MC3
Protocol: Then, each prepared F7siRNA-loaded lipid nanoparticles were administered to Balb/c mice (Charles River Laboratories Japan, Inc., 5 weeks old, female) and in vivo F7 knockdown activity was examined. Specifically, BALB/c mice were intravenously administered F7siRNA-loaded lipid nanoparticles comprising the lipids described in Table 9 at 0.025 mg siRNA/kg and F7siRNA-loaded lipid nanoparticles comprising the lipids described in Tables 10 and 11 at 0.025 mg siRNA/kg, and the plasma F7 enzyme activity at 24 hours later was measured using BIOPHEN FVII (Biophen, A221304). Relative plasma F7 enzyme activity (%) of mice administered each F7siRNA-loaded lipid nanoparticles was calculated using plasma F7 enzyme activity of untreated mice as 100%. Furthermore, the ratio was calculated using the relative plasma F7 enzyme activity (%) of mice administered MC3-comprising F7siRNA-loaded lipid nanoparticles as 1. The results of measurement of CL4F6 derivative nanoparticles are shown in Tables 9 and 10, and results of measurement of CL15F6 derivative nanoparticles in Table 11.

[2] = siRNA/mRNA encapsulation rate by Ribogreen reagent (section IV); type: physicochemical; settings: for % siRNA encapsulation: F7siRNA-loaded LNP, 50:10:38.5:1.5, N/P ratio 6; for % mRNA encapsulation: FlucmRNA-loaded LNP, 50:10:38.5:1.5
Protocol: The encapsulation rates of siRNA and mRNA of lipid nanoparticles were measured with Ribogreen reagent. A solution diluted with TE buffer solution was arranged so that lipid nanoparticle concentration as nucleic acid concentration to be 8 μg/mL, as a solution for measuring nanoparticle surface nucleic acid concentration. In addition, a solution for measuring total nucleic acid concentration was arranged so that lipid nanoparticle concentration as nucleic acid concentration to be 1.2 μg/mL, which is 1% (w/w) concentration of X-triton100, by adding X-triton100. For 100 μL of each solution, 100 μL of Ribogreen (registered trademark) reagent (Quant-iT™ RiboGreen™ RNA Reagent, manufactured by Thermofisher Scientific) was mixed well in the wells of 96-well microplate (black, made of polystyrene, flat bottom, manufactured by Corning), and the fluorescence intensity at an excitation wavelength of 485 nm and a measurement wavelength of 528 nm was measured with a microplate reader. Nucleic acid concentration was calculated by calibration curve created by measuring the fluorescence intensity of nucleic acid solution containing 1% X-triton100 (nucleic acid concentration: 0-2.5 μg/mL) as same as aforementioned. Nucleic acid encapsulation rate of each lipid nanoparticle was calculated by the following formula: Encapsulation rate %=(nucleic acid concentration in solution for measuring total nucleic acid concentration (μg/mL)−nucleic acid concentration in solution for measuring nanoparticle surface nucleic acid concentration (μg/mL))/nucleic acid concentration in solution for measuring total nucleic acid concentration (μg/mL)×100. <Results>
The encapsulation rate of mRNA of lipid nanoparticles was measured using Ribogreen (manufactured by life technologies).

liver = assay: In vivo Fluc activity of FlucmRNA-loaded LNP by in vivo imaging, liver; settings: Balb/c mice, 6 hours; for Fluc Activity in liver: FlucmRNA-loaded LNP i.v. 0.1 mg mRNA/kg; for Fluc activity in the liver, compared with CL15F6: 0.1 mg mRNA/kg, versus LNP comprising CL15F6 (Table 7)
Protocol: as §1

[3] = Storage stability of FlucmRNA-loaded LNP at −80, 5, 25 and 40° C.; type: physicochemical; settings: for period for which quality remained good, −80° C.: maximum storage period 1 week; for period for which quality remained good, 5° C. / period for which quality remained good, 25° C. / period for which quality remained good, 40° C. (weeks): maximum storage period 5 weeks
Protocol: Lipid nanoparticles were allowed to stand at each temperature of −80° C., 5° C., 25° C., and 40° C., and after keeping for each period of time, average particle size, PDI, and nucleic acid encapsulation rate were measured. Lipid nanoparticles which satisfy following all three conditions were defined that the quality was remained well: the average particle size is maintained within +/−20 nm based on the date of LNP preparation; PDI remains high uniformity with a value of 0.2 or less; and the nucleic acid encapsulation rate is also maintained at 80% or more. As a result of measuring average particle size, PDI, and nucleic acid encapsulation rate after each FlucmRNA-loaded lipid nanoparticle was allowed to stand at −80° C., 5° C., 25° C., and 40° C. respectively and kept for each period of time, periods of time defined as the quality of the lipid nanoparticles was remained well are shown in Tables 13 and 14. The lipid nanoparticles which remain in good quality with standing at 5° C. for one week or more can be evaluated as having excellent stability.

[4] = F7siRNA-loaded LNP, 50:10:38.5:1.5, N/P ratio 6
[5] = FlucmRNA-loaded LNP, 50:10:38.5:1.5
[6] = FlucmRNA-loaded LNP, lipid:DSPC:cholesterol:DMG-PEG2K 50:10:38.5:1.5

SMILES	PDI [1, 4]	ζ-Average (nm) [1, 4] [nm]	PDI [1, 5]	ζ-Average (nm) [1, 6] [nm]	% siRNA encapsulation [2] [%]	% mRNA encapsulation [2] [%]	period for which quality remained good, −80° C. [3] [week]	period for which quality remained good, 5° C. [3] [weeks]	period for which quality remained good, 25° C. [3] [weeks]	period for which quality remained good, 40° C. (weeks) [3]	Fluc Activity in spleen (spleen)	F7 enzyme activity (%) (F7)	Fluc Activity in liver (liver)	F7 enzyme activity (Ratio using MC3 as 1) (F7)	knockdown activity, compared with MC3 (F7)	Fluc activity in the liver, compared with CL15F6 (liver)	Fluc activity in the spleen, compared with CL15F6 (spleen)
CCCCCCCCC(CCCC)C(=O)OCCCCCCC(O)(CCCCCCOC(=O)C(CCCC)CCCCCCCC)CCCCOC(=O)C1CCN(C)CC1 (centres unmarked) [CL15F 10-4]	0.021	126.8	0.030	146.10	100.3	98.7	1	5	5	5 weeks	3.97E+06 Avg Radiance [p/s/cm2/sr]		2.07E+06 Avg Radiance [p/s/cm2/sr]	2.00			
CCCCCCCCC(CCCCCCCC)C(=O)OCCCCCCC(O)(CCCCCCOC(=O)C(CCCCCCCC)CCCCCCCC)CCCCOC(=O)C1CCN(C)CC1 [CL15F 10-8]	0.041	99.44	0.026	99.84	100.6	99.78	1	5	5	5 weeks	8.42E+06 Avg Radiance [p/s/cm2/sr]		1.35E+07 Avg Radiance [p/s/cm2/sr]	0.52	higher knockdown activity	higher Fluc activity	higher Fluc activity
CCCCCCC(CCCCCC)C(=O)OCCCCCCC(O)(CCCCCCOC(=O)C(CCCCCC)CCCCCC)CCCCOC(=O)C1CCN(C)CC1 [CL15F 8-6]	0.056	121.2	0.011	132.00	100.2	99.2	1	5	5	5 weeks	5.02E+06 Avg Radiance [p/s/cm2/sr]		1.92E+06 Avg Radiance [p/s/cm2/sr]	1.60			
CCCCCC(CCCCC)C(=O)OCCCCCCC(O)(CCCCCCOC(=O)C(CCCCC)CCCCC)CCCCOC(=O)C1CCN(C)CC1 [CL15F 7-5]	0.039	180.6	0.007	196.00	98.8	97.6	0	5	5	5 weeks	1.37E+07 Avg Radiance [p/s/cm2/sr]		2.15E+06 Avg Radiance [p/s/cm2/sr]	1.74			higher Fluc activity

Further lines, with some results ahead:

PDI [1, 4]	ζ-Average (nm) [1, 4] [nm]	PDI [1, 5]	ζ-Average (nm) [1, 6] [nm]	% siRNA encapsulation [2] [%]	% mRNA encapsulation [2] [%]	period for which quality remained good, −80° C. [3] [week]	period for which quality remained good, 5° C. [3] [weeks]	period for which quality remained good, 25° C. [3] [weeks]	period for which quality remained good, 40° C. (weeks) [3]	SMILES	Fluc Activity in spleen (spleen)	F7 enzyme activity (%) (F7)	Fluc Activity in liver (liver)	F7 enzyme activity (Ratio using MC3 as 1) (F7)	knockdown activity, compared with MC3 (F7)	Fluc activity in the liver, compared with CL15F6 (liver)	Fluc activity in the spleen, compared with CL15F6 (spleen)
0.012	89.72	0.019	81.81	100.1	99.6	1	5	5	1 week weeks	CCCCCCCCCC(CCCCC)C(=O)OCCCCCCC(O)(CCCCCCOC(=O)C(CCCCC)CCCCCCCCC)CCCCN(CCC)CCC (centres unmarked) [CL4F 11-5]	1.03E+06 Avg Radiance [p/s/cm2/sr]	4.3	4.50E+07 Avg Radiance [p/s/cm2/sr]				
0.015	85.62	0.019	75.85	99.2	99.6	1	5	5	5 weeks	CCCCCCCCCCC(CCCCCCCCCC)C(=O)OCCCCCCC(O)(CCCCCCOC(=O)C(CCCCCCCCCC)CCCCCCCCCC)CCCCN(CCC)CCC [CL4F 12-10]	2.77E+05 Avg Radiance [p/s/cm2/sr]	80.6	3.09E+07 Avg Radiance [p/s/cm2/sr]				
0.023	103.1	0.010	107.60	100.3	99.5	1	5	5	5 weeks	CCCCCCCC(CCCCCCC)C(=O)OCCCCCCC(O)(CCCCCCOC(=O)C(CCCCCCC)CCCCCCC)CCCCOC(=O)C1CCN(C)CC1 [CL15F 9-7]	4.23E+06 Avg Radiance [p/s/cm2/sr]		6.76E+06 Avg Radiance [p/s/cm2/sr]	0.60	higher knockdown activity	higher Fluc activity	
0.009	90.93	0.014	81.13	100.1	99.8	1	5	5	5 weeks	CCCCCCCCCC(CCCCCCCCC)C(=O)OCCCCCCC(O)(CCCCCCOC(=O)C(CCCCCCCCC)CCCCCCCCC)CCCCN(CCC)CCC [CL4F 11-9]	1.19E+06 Avg Radiance [p/s/cm2/sr]	47.7	6.86E+07 Avg Radiance [p/s/cm2/sr]				

Source: patent publication US12458605B2, “Lipid nanoparticle” (National University Corporation Hokkaido University, priority 2020, dated 2025)
